Read-outs that look alike come from different tables or passages of the source.
Assays:
[1] = test system: ECFC/ADSC co-culture cell nuclei number
RKO = assay: cells; format: cell-based
SNU-C1 = assay: cells; format: cell-based
DLD-1 = assay: cells; format: cell-based
SW480 = assay: cells; format: cell-based
[2] = test system: endothelial tube formation in co-cultures of ECFCs and ADSCs treated with VEGF; assay: cells; format: cell-based, human
Colo320 = assay: cells; format: cell-based
[3] = test system: HCT116 cells treated with a GSK3β inhibitor; assay: cells; format: cell-based
HCT116 = assay: cells; format: cell-based
HT-29 = assay: cells; format: cell-based
HeLa cells = assay: cells; format: cell-based; details: for Hela CellCycMod PI 2N IC50/EC50: assay number 14; for Hela CellCycMod PI 4N IC50/EC50: assay number 16; for Hela CellCycMod PI MI IC50/EC50: assay number 17; for Hela CellCycMod PI Cell Number IC50/EC50: assay number 18
[4] = assay number 26, GSK3b inhibitor pretreated

CCOP(=S)(OCC)SCSc1ccc(Cl)cc1 [NCGC00166170-02]
IC50 ([1]; read-out: VEGF_ADSC\ECFC Angio Hoechst NucArea summarized IC50): > 10 µM
IC50 (RKO; assay number 29, basal, read-out: Basal_Viability ATP RKO summarized IC50): > 20 µM
IC50 (SNU-C1; assay number 30, basal, read-out: Basal_Viability ATP SNU-C1 summarized IC50): > 20 µM
IC50 (DLD-1; assay number 23, basal, read-out: Basal_Viability ATP DLD-1 summarized IC50): > 20 µM
IC50 (SW480; assay number 24, basal, read-out: Basal_Viability ATP SW480 summarized IC50): > 20 µM
IC50 ([2]; read-out: VEGF_ADSC\ECFC Angio CD31 TubeArea summarized IC50): > 10 µM
IC50 (Colo320; assay number 27, basal, read-out: Basal_Viability ATP Colo 320 summarized IC50): > 20 µM
IC50 ([3]; assay number 26, GSK3b inhibitor pretreated, read-out: GSK3b inh pretreated_Viability ATP HCT116 summarized IC50): > 20 µM

C[S+](CC[C@H](N)C(=O)O)C[C@H]1O[C@@H](n2cnc3c(N)ncnc32)[C@H](O)[C@@H]1O (stereo partly shown) [NCGC00167546-03]
VEGF_ADSC\ECFC Angio Hoechst NucArea IC50/EC50 [1]: > 10 µM
Basal_Viability ATP RKO IC50/EC50 (RKO; assay number 29, basal): > 20 µM
Basal_Viability ATP HCT116 IC50/EC50 (HCT116; assay number 25, basal): > 20 µM
Basal_Viability ATP SNU-C1 IC50/EC50 (SNU-C1; assay number 30, basal): > 20 µM
Basal_Viability ATP DLD-1 IC50/EC50 (DLD-1; assay number 23, basal): > 20 µM
Basal_Viability ATP SW480 IC50/EC50 (SW480; assay number 24, basal): > 20 µM
VEGF_ADSC\ECFC Angio CD31 TubeArea IC50/EC50 [2]: > 10 µM
Basal_Viability ATP Colo 320 IC50/EC50 (Colo320; assay number 27, basal): > 20 µM
GSK3b inh pretreated_Viability ATP HCT116 IC50/EC50 [3, 4]: > 20 µM

c1cnc2cc3c(cc2n1)C1CNCC3C1 [NCGC00247735-02]
Basal_Viability ATP HCT116 IC50/EC50 (HCT116; assay number 25, basal): > 20 µM
Basal_Viability ATP DLD-1 IC50/EC50 (DLD-1; assay number 23, basal): > 6.6667 µM
Basal_Viability ATP SW480 IC50/EC50 (SW480; assay number 24, basal): > 6.6667 µM
Basal_Viability ATP Colo 320 IC50/EC50 (Colo320; assay number 27, basal): > 20 µM

COc1ccc(-n2nc(CCC(=O)N(C)O)cc2-c2ccc(Cl)cc2)cc1 [NCGC00253573-01]
Basal_Viability ATP RKO IC50/EC50 (RKO): 4.1076 µM
Basal_Viability ATP HCT116 IC50/EC50 (HCT116): 6.5453 µM
Basal_Viability ATP SNU-C1 IC50/EC50 (SNU-C1): 1.7479 µM
Basal_Viability ATP DLD-1 IC50/EC50 (DLD-1): 2.0757 µM
Basal_Viability ATP SW480 IC50/EC50 (SW480): 2.8124 µM
Basal_Viability ATP Colo 320 IC50/EC50 (Colo320): 0.6615 µM

Clc1ccc(C(Cn2ccnc2)OCc2ccc(Sc3ccccc3)cc2)c(Cl)c1 (stereo not shown) [NCGC00253713-01]
VEGF_ADSC\ECFC Angio Hoechst NucArea IC50/EC50 [1]: > 10 µM
Basal_Viability ATP RKO IC50/EC50 (RKO; assay number 29): 6.141 µM
Basal_Viability ATP HCT116 IC50/EC50 (HCT116; assay number 25, basal): 7.7123 µM
Basal_Viability ATP HT-29 IC50/EC50 (HT-29; assay number 28): > 20 µM
Basal_Viability ATP DLD-1 IC50/EC50 (DLD-1; assay number 23): 7.7564 µM
Basal_Viability ATP SW480 IC50/EC50 (SW480; assay number 24): 7.4367 µM
VEGF_ADSC\ECFC Angio CD31 TubeArea IC50/EC50 [2]: > 10 µM
Basal_Viability ATP Colo 320 IC50/EC50 (Colo320; assay number 27): 7.0587 µM
GSK3b inh pretreated_Viability ATP HCT116 IC50/EC50 [3, 4]: 6.7686 µM

NCCNc1ccc(NCCN)c2c1C(=O)c1ccncc1C2=O [NCGC00274280-01]
VEGF_ADSC\ECFC Angio Hoechst NucArea IC50/EC50 [1]: > 10 µM
Hela CellCycMod PI 2N IC50/EC50 (HeLa cells): 0.042 µM
Hela CellCycMod PI 4N IC50/EC50 (HeLa cells): 0.04829 µM
Hela CellCycMod PI MI IC50/EC50 (HeLa cells): > 10 µM
Hela CellCycMod PI Cell Number IC50/EC50 (HeLa cells): 0.04206 µM
VEGF_ADSC\ECFC Angio CD31 TubeArea IC50/EC50 [2]: 0.0465 µM

CN1Cc2cc(C(=O)N3CCC(C4CCNCC4)CC3)ccc2N[C@@H](CC(=O)O)C1=O [NCGC00319023-01]
VEGF_ADSC\ECFC Angio Hoechst NucArea IC50/EC50 [1]: > 10 µM
Basal_Viability ATP RKO IC50/EC50 (RKO; assay number 29, concentration response): > 20 µM
Basal_Viability ATP HCT116 IC50/EC50 (HCT116; assay number 25, basal, concentration response): > 20 µM
Basal_Viability ATP SNU-C1 IC50/EC50 (SNU-C1; assay number 30, concentration response): > 20 µM
Basal_Viability ATP DLD-1 IC50/EC50 (DLD-1; assay number 23, concentration response): > 20 µM
Basal_Viability ATP SW480 IC50/EC50 (SW480; assay number 24, concentration response): > 20 µM
VEGF_ADSC\ECFC Angio CD31 TubeArea IC50/EC50 [2]: > 10 µM
Basal_Viability ATP Colo 320 IC50/EC50 (Colo320; assay number 27, concentration response): > 20 µM
GSK3b inh pretreated_Viability ATP HCT116 IC50/EC50 ([3]; assay number 26, GSK3b inhibitor pretreated, concentration response): > 20 µM

CCCCCCCCCCCCCCCC[N+](C)(C)Cc1ccccc1.[Cl-] [NCGC00344524-01]
VEGF_ADSC\ECFC Angio Hoechst NucArea IC50/EC50 [1]: > 10 µM
Hela CellCycMod PI 2N IC50/EC50 (HeLa cells): > 10 µM
Hela CellCycMod PI S Phase IC50/EC50 (HeLa cells; assay number 15, S phase): > 10 µM
Hela CellCycMod PI 4N IC50/EC50 (HeLa cells): > 10 µM
Hela CellCycMod PI MI IC50/EC50 (HeLa cells): > 10 µM
Hela CellCycMod PI Cell Number IC50/EC50 (HeLa cells): > 10 µM
VEGF_ADSC\ECFC Angio CD31 TubeArea IC50/EC50 [2]: 2.5333 µM

Cc1cc(-c2ccc(N=Nc3c(S(=O)(=O)O)cc4cc(S(=O)(=O)O)cc(N)c4c3O)c(C)c2)ccc1N=Nc1c(S(=O)(=O)O)cc2cc(S(=O)(=O)O)cc(N)c2c1O [NCGC00344528-01]
IC50/EC50, VEGF_ADSC\ECFC Angio Hoechst NucArea (assay number 3) [1]: > 10 µM
IC50/EC50, Basal_Viability ATP RKO (assay number 29) (RKO; basal): > 20 µM
IC50/EC50, Basal_Viability ATP HCT116 (assay number 25) (HCT116; basal): > 20 µM
IC50/EC50, Basal_Viability ATP HT-29 (assay number 28) (HT-29; basal): > 20 µM
IC50/EC50, Basal_Viability ATP DLD-1 (assay number 23) (DLD-1; basal): > 20 µM
IC50/EC50, Basal_Viability ATP SW480 (assay number 24) (SW480; basal): > 20 µM
IC50/EC50, VEGF_ADSC\ECFC Angio CD31 TubeArea (assay number 2) [2]: > 10 µM
IC50/EC50, Basal_Viability ATP Colo 320 (assay number 27) (Colo320; basal): > 20 µM
IC50/EC50, GSK3b inh pretreated_Viability ATP HCT116 (assay number 26) ([3]; GSK3b inh pretreated): > 20 µM

Source: article PMC4503722, “Novel Phenotypic Outcomes Identified for a Public Collection of Approved Drugs from a Publicly Accessible Panel of Assays” (PLoS ONE, 2015)
